According to patent US9090617B1, “Agonists of Src homology-2 containing protein tyrosine phosphatase-1 and treatment methods using the same” (National Taiwan University, priority 2011, dated 2015):

Legend:
[1] = system: Huh-7 tumors
Protocol: Male NCr athymic nude mice (5-7 weeks of age) were obtained from the National Laboratory Animal Center (Taipei, Taiwan). All experimental procedures using these mice were performed in accordance with protocols approved by National Taiwan University. […] Controls received vehicle (Chen K F et al. Cancer Res. 2008; 68:6698-6707).

[2] = system: HCC cells; assay: Apoptosis analysis by flow cytometry (sub-G1); format: cell-based; conditions: HCC cells, 24 h
In short: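 HCC cells treated with compounds, harvested, fixed in 75% ethanol and stained with 20 ug/ml propidium iodide, 30 min at 37° C in the dark. Sub-G1 population measured by flow cytometry as apoptotic fraction; mean ± SD.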

[3] = target: T1, VEGFR1 (Homo sapiens, UniProt P17948); assay: VEGFR1 activity in HUVEC cells; format: cell-based; conditions: 24 h
T1 construct: we tested the effect of SC-49 on the activity of VEGFR1 in HUVEC cells; endogenous in cells; host or cells: HUVEC
From the text: (§1) To further investigate the effect of SC-49 on angiogenesis, we tested the effect of SC-49 on the activity of VEGFR1 in HUVEC cells.

[4] = system: p-STAT1 and p-STAT5; assay: Effect on p-STAT1 and p-STAT5; format: cell-based; conditions: indicated doses, 24 h
From the text: as §1

[5] = target: T2, SHP-1 (Homo sapiens, UniProt P29350); assay: Phosphatase activity of SHP-1 immunoprecipitated from PLC5 cells, incubated with compound in vitro; format: biochemical; set-up: PLC5 protein extract was incubated with anti-SHP-1 antibody in immunoprecipitation buffer overnight; endogenous in cells; host or cells: PLC5 (PLC/PRF/5); conditions: SHP-1-containing PLC5 extract, 10 or 100 nmol/L, 30 min, 4° C.
Protocol: PLC5 protein extract was incubated with anti-SHP-1 antibody in immunoprecipitation buffer overnight. Protein G Sepharose 4 Fast flow (GE Healthcare Bio-Science) was added to each sample, followed by incubation for 3 hours at 4° C. with rotation. […] RediPlate 96 EnzChek Tyrosine Phosphatase Assay kit (R-22067) was used for SHP-1 activity assay (Molecular Probes).

[6] = system: p-STAT3, cyclin D1, survivin, Mc1-1; assay: Western blot of STAT3-related proteins in HCC cells; format: cell-based; conditions: HCC cells, 24 h
Protocol: Cells were treated with various compounds at 5 and 10 μM for 24 h. Cell lysates were analyzed by western blot.
HCC cells treated with SC-43 (10 μM for 24 h) were collected with RIPA lysis buffer. Antibodies for immunoblotting such as cyclin D1 was purchased from Santa Cruz Biotechnology. Other antibodies such as survivin, phospho-STAT3 (Tyr705), STAT3, Mc1-1, SOCS1, and SOCS3 were from Cell Signaling.

[7] = system: Huh-7 xenograft tumor; assay: Huh-7 xenograft with SC-59 or sorafenib and radiation; format: in vivo, mice
Protocol: (A) The effects of SC-59 and radiation on tumor growth. Each mouse was inoculated subcutaneously in the right leg with […] Huh-7 cells suspended in Matrigel. When the tumor reached a volume of 400-600 mm3, mice received vehicle, 5 Gy radiation (one fraction per day) for 4 days, or 10 mg/kg SC-59 p.o. once daily, or a combination for the duration of the study. The data points indicate the mean values (n=6) and the bars indicate the standard error. There were significant differences between the combined treatment group and the vehicle control group (*, P<0.05, **, P<0.01). (B) Left, the expression of P-STAT3 in the Huh-7 tumors was analyzed by western blot. Right, quantified data for p-STAT3 to STAT3. (C) The activity of SHP-1 in Huh-7 tumors. Values are means±SD, *, P<0.05. (D) Body weight of mice after SC-59 and RT treatment. […] The data points indicate the mean values (n=6) and the bars indicate the standard error. […] (H) Body weight of mice treated with vehicle, RT, sorafenib, and combination.
To further elucidate the molecular events responsible for this synergistic effect, we examined the expression level of p-STAT3 in the tumor extract.

[8] = target: T2, SHP-1; assay: SHP-1 activity in treated HCC cells (tyrosine phosphatase assay kit); format: cell-based; set-up: endogenous in cells; conditions: SK-Hep1 cells
From the text: The RediPlate 96 EnzChek® Tyrosine Phosphatase Assay Kit (R-22067) was used for SHP-1 activity assay (Molecular Probes, Carlsbad, Calif.). The Raf-1 kinase cascade assay kit (Upstate-Millipore, Billerica, Mass.) was used to examine the Raf-1 kinase activity. The JAK2 kinase activity kit was purchased from Reaction Biology Corp. (Malvern, Pa.).

T2 sequence (P29350 whole entry): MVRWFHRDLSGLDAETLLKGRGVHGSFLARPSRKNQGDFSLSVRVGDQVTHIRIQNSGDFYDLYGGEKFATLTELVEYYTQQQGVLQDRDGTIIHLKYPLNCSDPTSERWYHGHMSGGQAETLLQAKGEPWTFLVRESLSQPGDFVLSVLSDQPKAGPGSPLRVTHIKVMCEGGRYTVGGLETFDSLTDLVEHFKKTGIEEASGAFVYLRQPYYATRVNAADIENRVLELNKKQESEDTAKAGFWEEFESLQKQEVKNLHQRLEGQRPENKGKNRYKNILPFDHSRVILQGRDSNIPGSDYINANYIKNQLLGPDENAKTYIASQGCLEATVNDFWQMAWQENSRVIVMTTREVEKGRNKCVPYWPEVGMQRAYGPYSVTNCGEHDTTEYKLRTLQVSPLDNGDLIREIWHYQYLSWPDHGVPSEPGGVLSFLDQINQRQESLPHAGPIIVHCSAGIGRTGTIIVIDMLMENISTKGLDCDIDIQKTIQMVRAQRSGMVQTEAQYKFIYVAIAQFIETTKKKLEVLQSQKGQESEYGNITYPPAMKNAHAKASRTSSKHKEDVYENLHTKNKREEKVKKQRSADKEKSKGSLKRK
T1 sequence (P17948 27-1338): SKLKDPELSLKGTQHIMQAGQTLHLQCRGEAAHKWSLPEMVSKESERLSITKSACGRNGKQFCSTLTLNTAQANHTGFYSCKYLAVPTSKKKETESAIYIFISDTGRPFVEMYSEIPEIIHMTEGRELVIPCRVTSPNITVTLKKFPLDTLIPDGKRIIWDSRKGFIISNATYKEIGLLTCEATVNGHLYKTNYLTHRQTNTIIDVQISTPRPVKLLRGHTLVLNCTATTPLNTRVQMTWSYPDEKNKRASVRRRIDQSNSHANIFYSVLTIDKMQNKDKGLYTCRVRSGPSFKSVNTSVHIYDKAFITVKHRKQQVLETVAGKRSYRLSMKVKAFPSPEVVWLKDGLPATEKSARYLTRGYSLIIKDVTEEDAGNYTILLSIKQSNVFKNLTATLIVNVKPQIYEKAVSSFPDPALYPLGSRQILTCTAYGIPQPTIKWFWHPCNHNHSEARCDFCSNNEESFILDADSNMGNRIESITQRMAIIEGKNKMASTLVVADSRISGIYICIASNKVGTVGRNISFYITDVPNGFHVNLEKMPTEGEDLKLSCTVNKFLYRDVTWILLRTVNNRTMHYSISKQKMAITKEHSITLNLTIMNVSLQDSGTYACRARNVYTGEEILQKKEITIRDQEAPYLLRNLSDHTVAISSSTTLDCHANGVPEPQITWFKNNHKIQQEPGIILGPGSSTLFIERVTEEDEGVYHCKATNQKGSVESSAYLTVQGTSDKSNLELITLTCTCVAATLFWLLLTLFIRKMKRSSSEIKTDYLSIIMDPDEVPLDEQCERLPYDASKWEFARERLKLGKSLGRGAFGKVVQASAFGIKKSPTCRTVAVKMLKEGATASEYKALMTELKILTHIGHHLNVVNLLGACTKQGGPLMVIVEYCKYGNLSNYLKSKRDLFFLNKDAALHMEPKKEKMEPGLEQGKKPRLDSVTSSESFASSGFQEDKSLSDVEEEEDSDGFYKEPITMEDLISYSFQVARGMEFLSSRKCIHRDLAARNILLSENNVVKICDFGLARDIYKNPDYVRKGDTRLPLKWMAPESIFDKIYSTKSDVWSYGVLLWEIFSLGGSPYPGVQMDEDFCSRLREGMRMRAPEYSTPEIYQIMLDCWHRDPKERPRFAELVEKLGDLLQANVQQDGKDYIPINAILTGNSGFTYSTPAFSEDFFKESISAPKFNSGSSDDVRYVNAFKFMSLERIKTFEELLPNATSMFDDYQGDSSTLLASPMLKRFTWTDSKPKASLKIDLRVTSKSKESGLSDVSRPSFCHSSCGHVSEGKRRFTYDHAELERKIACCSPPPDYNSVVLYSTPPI

| SMILES | Huh-7 tumor size / growth versus control ([1]; 10 mg/kg/day orally) | body weight or toxicity ([1]; mouse, in vivo, po, 10 mg/kg/day) | SHP-1 activity in Huh-7 tumors ([1]; tumor extract) | p-STAT3 in Huh-7 tumors ([1]; tumor extract, Western blot) | apoptosis (sub-G1) [2] | activity of VEGFR1 [3] | p-STAT1 and p-STAT5 [4] | phosphatase activity of SHP-1 in vitro [5] | p-STAT3 and STAT3-related proteins (Western blot) [6] | tumor growth with radiotherapy combination ([7]; 10 mg/kg p.o. once daily plus 5 Gy radiation for 4 days) | SHP-1 phosphatase activity in tumor samples ([7]; Huh-7 tumors, 10 mg/kg p.o.) | p-STAT3 in treated tumor samples ([7]; Huh-7 tumors, 10 mg/kg p.o.) | body weight ([7]; Huh-7 xenograft, 10 mg/kg p.o.) | phosphatase activity of SHP-1 in cells [8] |
| --- | --- | --- | --- | --- | --- | --- | --- | --- | --- | --- | --- | --- | --- | --- |
| N#Cc1ccc(Oc2ccc(CNC(=O)Nc3ccc(Cl)c(C(F)(F)F)c3)cc2)cc1 [SC-49, 1-(4-chloro-3-(trifluoromethyl)phenyl)-3-(4-(4-cyanophenoxyl)benzyl)urea] | significantly reduced the growth of the Huh-7 tumour | stable body weights | enhanced the activity of SHP-1 in Huh-7 tumours | down-regulated p-STAT3 in Huh-7 tumours | induced more apoptotic cell death than sorafenib | did not affect the activity of VEGFR1 in HUVEC cells | down-regulated both p-STAT1 and p-STAT5 in a dose dependent manner | increase phosphatase activity of SHP-1 in vitro |  |  |  |  |  |  |
| Cc1ccc(NC(=O)Nc2ccc(Cl)c(C(F)(F)F)c2)cc1Oc1ccc(C#N)cc1 [SC-59, 1-(4-chloro-3-(trifluoromethyl)phenyl)-3-(3-(4-cyanophenoxy)-4-methylphenyl) urea] |  |  |  |  |  |  |  |  | downregulated phospho-STAT3 (p-STAT3) at tyrosine 705 along with its downstream molecules | displayed significant tumor growth inhibition compared to radiotherapy or SC-59 alone | induction of SHP-1 phosphatase activity was observed | resulted in clear inhibition of p-STAT3 | no significant difference in body weight | significantly increased the phosphatase activity of SHP-1 in SK-Hep1 cells |
